Source: ChEMBL document CHEMBL1138055, “Tetraoxane antimalarials and their reaction with Fe(II)” (J Med Chem, 2006)
Where “and” joins values, the source holds several entries; their conditions need not be identical. Equal values may be shown once.

Experiments:
HOP-62 = test: Antiproliferative activity against human HOP62 cell line after 48 hrs; assay type: functional; details: Homo sapiens, HOP-62, 48 h
UO-31 = test: Antiproliferative activity against human UO31 cell line after 48 hrs; assay type: functional; details: Homo sapiens, UO-31, 48 h; for CC50: read-out: LC50 (the source's name)
ACHN = test: Antiproliferative activity against human ACHN cell line after 48 hrs; assay type: functional; details: Homo sapiens, ACHN, 48 h
COLO 205 = test: Antiproliferative activity against human COLO 205 cell line after 48 hrs; assay type: functional; details: Homo sapiens, COLO 205, 48 h
Vero [1] = test: Cytotoxicity against VERO cells; assay type: functional, cell-based; details: Chlorocebus sabaeus
NCI-H460 = test: Antiproliferative activity against human NCI-H460 cell line after 48 hrs; assay type: functional; details: NCI-H460, 48 h
IGROV-1 = test: Antiproliferative activity against human IGROV1 cell line after 48 hrs; assay type: functional; details: Homo sapiens, IGROV-1, 48 h
RPMI-8226 = test: Antiproliferative activity against human RPMI8226 cell line after 48 hrs; assay type: functional
CAKI-1 = test: Antiproliferative activity against human CAKI1 cell line after 48 hrs; assay type: functional; details: CAKI-1, 48 h
TK-10 = test: Antiproliferative activity against human TK10 cell line after 48 hrs; assay type: functional; details: TK-10, 48 h
Vero [2] = test: Selectivity index, IC50 for VERO cells/LC50 for UO31 cells; assay type: functional
Mus musculus [3] = test: Effect on survival of CD1 mice (Mus musculus) infected with Plasmodium berghei KBG173 at 50 mg/kg/day, perorally; assay type: functional; details: route oral
SF-268 = test: Antiproliferative activity against human SF268 cell line after 48 hrs; assay type: functional; details: SF-268, 48 h
Plasmodium falciparum [4] = test: microbe, parasite or virus in culture; details: W2
Description: (§1) Antimalarial activity against Plasmodium falciparum W2

Plasmodium falciparum [5] = test: microbe, parasite or virus in culture; details: D6
Description: (§2) Antimalarial activity against Plasmodium falciparum D6

Vero [6] = test: Selectivity index, IC50 for VERO cells/IC50 for Plasmodium falciparum D6; assay type: functional
NCI-H23 = test: Antiproliferative activity against human NCI-H23 cell line after 48 hrs; assay type: functional; details: NCI-H23, 48 h
Mus musculus [7] = test: Effect on survival of CD1 mice (Mus musculus) infected with Plasmodium berghei KBG173 at 200 mg/kg/day, perorally; assay type: functional; details: route oral
Vero [8] = test: Selectivity index, IC50 for VERO cells/IC50 for Plasmodium falciparum W2; assay type: functional
Mus musculus [9] = test: Effect on survival of CD1 mice (Mus musculus) infected with Plasmodium berghei KBG173 at 600 mg/kg/day, perorally; assay type: functional, organism-based; set-up: route oral; details: route oral
[10] = Half life in human liver microsomes; assay type: ADME, Microsome
EKVX = test: Antiproliferative activity against human EKVX cell line after 48 hrs; assay type: functional; details: Homo sapiens, EKVX, 48 h
Liver microsomes = test: Intrinsic clearance in human liver microsomes; assay type: ADME, Microsome
Plasmodium falciparum [11] = test system: Plasmodium falciparum
Description: Antimalarial activity against Plasmodium falciparum TM91C235

PBMC [12] = test: Selectivity index, IC50 for PBMC/IC50 for Plasmodium falciparum TM91C235; assay type: functional
786-0 = test: Antiproliferative activity against human 786-0 cell line after 48 hrs; assay type: functional; details: 786-0, 48 h
PBMC [13] = test: Cytotoxicity against human peripheral blood mononuclear cells; assay type: functional, cell-based
PBMC [14] = test: Cytotoxicity against PHA-stimulated human PBMC; assay type: functional, cell-based
PBMC [15] = test: Selectivity index, IC50 for PBMC/IC50 for Plasmodium falciparum D6; assay type: functional
Mus musculus [16] = species on record: Mus musculus; test: Intrinsic clearance in mouse liver microsomes; assay type: ADME, Microsome
Plasmodium falciparum [17] = test system: Plasmodium falciparum; remark: listed apart in the source
Description: as §2

PBMC [18] = test: Selectivity index, IC50 for PBMC/LC50 for UO31 cells; assay type: functional
Plasmodium falciparum [19] = test system: Plasmodium falciparum; remark: listed apart in the source
Description: as §1

PBMC [20] = test: Selectivity index, IC50 for PBMC/IC50 for Plasmodium falciparum W2; assay type: functional
[21] = Half life in mouse liver microsomes; assay type: ADME, Microsome
LOX IMVI = test: Antiproliferative activity against human LOX IMVI cell line after 48 hrs; assay type: functional
[22] = read-out: LC50 (the source's name)

SMILES: CCCC(=O)CC[C@@H](C)[C@H]1CC[C@H]2[C@@H]3[C@H](OC(C)=O)C[C@@H]4CC5(CC[C@]4(C)[C@H]3C[C@H](OC(C)=O)[C@]12C)OOC1(CCCCC1)OO5
- GI50 (HOP-62): 440 nM
- TGI (HOP-62): 1720 nM
- CC50 (HOP-62; [22]): 5400 nM
- GI50 (UO-31): < 10 nM
- TGI (UO-31): < 10 nM
- CC50 (UO-31): 17 nM
- GI50 (ACHN): 1340 nM
- LC50 (ACHN): 5120 nM
- TGI (ACHN): 2620 nM
- GI50 (COLO 205): 1770 nM
- TGI (COLO 205): 3720 nM
- CC50 (COLO 205; [22]): 7820 nM
- IC50 (Vero [1]): 12300 nM
- GI50 (NCI-H460): 180 nM
- TGI (NCI-H460): 590 nM
- CC50 (NCI-H460; [22]): 2600 nM
- GI50 (IGROV-1): 190 nM
- TGI (IGROV-1): 460 nM
- CC50 (IGROV-1; [22]): 1360 nM
- TGI (RPMI-8226; Homo sapiens, RPMI-8226, 48 h): 3470 nM
- CC50 (RPMI-8226; [22]): 1280 nM and 9370 nM
- GI50 (CAKI-1): 180 nM
- TGI (CAKI-1): 400 nM
- CC50 (CAKI-1; [22]): 910 nM
- GI50 (TK-10): 1670 nM
- TGI (TK-10): 3620 nM
- CC50 (TK-10; [22]): 7840 nM
- Selectivity index (Vero [2]): 726
- Activity (Mus musculus [3]): 14.2 days
- GI50 (SF-268): 1570 nM
- TGI (SF-268): 3900 nM
- CC50 (SF-268; [22]): 9680 nM
- IC50 (Plasmodium falciparum [4]): 6.8 nM
- IC50 (Plasmodium falciparum [5]): 14.8 nM
- Selectivity index (Vero [6]): 823
- GI50 (NCI-H23): 610 nM
- TGI (NCI-H23): 1990 nM
- CC50 (NCI-H23; [22]): 4640 nM
- Activity (Mus musculus [7]): 24.4 days
- Selectivity index (Vero [8]): 1763
- Activity (Mus musculus [9]): 28 days

SMILES: CC(=O)O[C@H]1C[C@H]2[C@@H]([C@H](OC(C)=O)C[C@@H]3CC4(CC[C@@]32C)OOC2(CCC(C(=O)Nc3ccccc3)CC2)OO4)[C@@H]2CC[C@H]([C@H](C)CCC(=O)Nc3ccccc3)[C@@]12C (stereo in doubt; 13)
- GI50 (UO-31): 50 nM
- TGI (UO-31): 190 nM
- CC50 (UO-31): 510 nM
- half-life [10]: > 2 h
- GI50 (EKVX): 900 nM
- LC50 (EKVX): > 100000 nM
- TGI (EKVX): > 100000 nM
- CL (Liver microsomes): < 0.6 mL/min/g
- IC50 (Plasmodium falciparum [11]): 8.1 nM
- IC90 (Plasmodium falciparum [11]): 19.2 nM
- Selectivity index (PBMC [12]): >25000
- GI50 (786-0): 450 nM
- LC50 (786-0): 67900 nM
- TGI (786-0): 14200 nM
- IC50 (PBMC [13]): > 200000 nM
- IC50 (PBMC [14]): > 200000 nM
- Selectivity index (PBMC [15]): >33000
- CL (Mus musculus [16]): < 0.6 mL/min/g
- IC50 (Plasmodium falciparum [17]): 6.2 nM
- IC90 (Plasmodium falciparum [17]): 11.3 nM
- Selectivity index (PBMC [18]): >392
- IC50 (Plasmodium falciparum [19]): 11.4 nM
- IC90 (Plasmodium falciparum [19]): 20.8 nM
- Selectivity index (PBMC [20]): >18000
- half-life [21]: > 2 h
- GI50 (LOX IMVI): 370 nM
- TGI (LOX IMVI): 1690 nM
- CC50 (LOX IMVI; [22]): 7150 nM
